Test results as given in patent publication US12064516B2, “Pharmaceutical formulations and uses thereof” (Aldeyra Therapeutics, Inc., priority 2020, dated 2024).
Read-outs that look alike come from different tables or passages of the source.

Key:
[1] = Phase 1 clinical trial, single ascending dose (SAD) pharmacokinetics; format: in vivo, human; settings: healthy volunteers; for AUC(0-inf) / Cmax / half-life: human, in vivo, po
Source text: Pharmacokinetic data are presented below.

[2] = Phase 1 clinical trial, multiple ascending dose (MAD) pharmacokinetics; format: in vivo, human; settings: for Cmax / half-life / AUC(0-t): human, in vivo; for AUC(0-t): read-out: Mean AUC0-12
Source text: PK data are presented below.

[3] = Tolerability as a systemic dose, I-1 versus ADX-102; format: in vivo
Protocol: Compound I-1 is the des-chloro analog of ADX-102. […] We have therefore investigated compound I-1 in 90-day toxicology studies in rat and dog as well as 10-day studies in man. We compared two data sets to contrast the pharmacokinetics of the two test articles. A 50 mg/kg oral dose PK study of compound I-1 was conducted in Sprague-Dawley rats using methylcellulose suspension. A pharmacokinetic study of ADX-102 was also conducted in Sprague Dawley rats at a dose of 10 mg/kg in a methylcellulose suspension that also contained Tween 80. Both studies also incorporated intravenous administration in captisol for the calculation of clearance and steady state volume of distribution.

[4] = human, in vivo, 10 days
Source text: This Phase 1 trial was a first-in-human, randomized, double-blind, placebo-controlled trial with a 3:1 randomization of I-1 and placebo. The trial was comprised of single ascending dose (SAD) and multiple ascending dose (MAD) protocols. MAD drug exposure was 10 days of twice-per-day (BID) administration.
A total of 54 healthy volunteers were randomized across two cohorts of varying doses: 41 subjects received I-1 and 13 subjects received placebo.
Thirty-one (31) subjects were randomized to varying doses: 23 subjects received I-1 and 8 subjects received placebo.

[5] = 100 mg, oral single dose 100 mg
[6] = 200 mg, oral single dose 200 mg
[7] = 400 mg, oral single dose 400 mg
[8] = 700 mg, oral single dose 700 mg
[9] = 1200 mg, oral single dose 1200 mg

`CC(C)(O)c1nc2ccccc2cc1N` [I-1] showed an AUCinf ([1]; oral single dose 20 mg) of 50.0 ng·h/mL, an AUCinf ([1]; oral single dose 50 mg) of 156 ng·h/mL and an AUCinf ([1]; oral single dose 100 mg) of 433 ng·h/mL. It also gave an AUCinf ([1]; oral single dose 200 mg) of 1140 ng·h/mL, an AUCinf ([1]; oral single dose 400 mg) of 2730 ng·h/mL and an AUCinf ([1]; oral single dose 700 mg) of 6710 ng·h/mL. It also gave an AUCinf ([1]; oral single dose 1200 mg) of 14500 ng·h/mL, an AUC(0-inf) ([1]; 20 mg, oral single dose 20 mg) of ~50 ng·h/mL and a Cmax ([1]; 20 mg, oral single dose 20 mg) of ~26.4 ng/mL. The AUC(0-inf) ([1]; 50 mg, oral single dose 50 mg) was ~156 ng·h/mL, the Cmax ([1]; 50 mg, oral single dose 50 mg) was ~56.7 ng/mL and the AUC(0-inf) [1, 5] was ~433 ng·h/mL. It also gave a Cmax [1, 5] of ~140 ng/mL, a half-life [1, 5] of 3.52 h and an AUC(0-inf) [1, 6] of ~1140 ng·h/mL. It also gave a Cmax [1, 6] of ~459 ng/mL, a half-life [1, 6] of 6.04 h and an AUC(0-inf) [1, 7] of ~2730 ng·h/mL. It also gave a Cmax [1, 7] of ~869 ng/mL, a half-life [1, 7] of 6.15 h and an AUC(0-inf) [1, 8] of ~6710 ng·h/mL. It also gave a Cmax [1, 8] of ~2020 ng/mL, a half-life [1, 8] of 7.33 h and an AUC(0-inf) [1, 9] of ~14500 ng·h/mL. The Cmax [1, 9] was ~4220 ng/mL, the half-life [1, 9] was 7.69 h and the “accumulation of the drug” value ([2]; across all cohorts) was “Little to no accumulation”. The “relation of Cmax and AUC to dose” value ([2]; as dose increased, Phase 1 cohorts) was “linear correlation”, the Cmax ([2]; oral, 600 mg, top dose 600 mg BID, read-out: Cmax expressed as molar concentration) was ~8.5 µM and the half-life ([2]; oral, multiple day exposures, across cohorts and days, read-out: half-life (t1/2), range of mean values) was 3.49 to 6.83 h. It also gave an AUC(0-t) ([2]; po, 50 mg, oral 50 mg BID, Day 1) of ~148 ng·h/mL, a Cmax ([2]; po, 50 mg, oral 50 mg BID, Day 1, read-out: Mean Cmax) of ~70.2 ng/mL and a half-life ([2]; po, 50 mg, oral 50 mg BID, Day 1, read-out: Mean t1/2 (converted)) of ~3.49 h. For the same molecule, the AUC(0-t) ([2]; po, 50 mg, oral 50 mg BID, Day 10) was 252 ng·h/mL, the Cmax ([2]; po, 50 mg, oral 50 mg BID, Day 10, read-out: Mean Cmax) was 85.9 ng/mL and the half-life ([2]; po, 50 mg, oral 50 mg BID, Day 10, read-out: Mean t1/2 (converted)) was 5.25 h. It also gave an AUC(0-t) ([2]; po, 150 mg, oral 150 mg BID, Day 1) of ~809 ng·h/mL, a Cmax ([2]; po, 150 mg, oral 150 mg BID, Day 1, read-out: Mean Cmax) of ~343 ng/mL and a half-life ([2]; po, 150 mg, oral 150 mg BID, Day 1, read-out: Mean t1/2 (converted)) of ~4.86 h. It also gave an AUC(0-t) ([2]; po, 150 mg, oral 150 mg BID, Day 10) of 1170 ng·h/mL, a Cmax ([2]; po, 150 mg, oral 150 mg BID, Day 10, read-out: Mean Cmax) of 320 ng/mL and a half-life ([2]; po, 150 mg, oral 150 mg BID, Day 10, read-out: Mean t1/2 (converted)) of 6.34 h. The AUC(0-t) ([2]; po, 350 mg, oral 350 mg BID, Day 1) was ~2950 ng·h/mL, the Cmax ([2]; po, 350 mg, oral 350 mg BID, Day 1, read-out: Mean Cmax) was ~1190 ng/mL and the half-life ([2]; po, 350 mg, oral 350 mg BID, Day 1, read-out: Mean t1/2 (converted)) was ~5.67 h. The AUC(0-t) ([2]; po, 350 mg, oral 350 mg BID, Day 10) was 4340 ng·h/mL, the Cmax ([2]; po, 350 mg, oral 350 mg BID, Day 10, read-out: Mean Cmax) was 1230 ng/mL and the half-life ([2]; po, 350 mg, oral 350 mg BID, Day 10, read-out: Mean t1/2 (converted)) was 6.83 h. For the same molecule, the AUC(0-t) ([2]; po, 600 mg, oral 600 mg BID, Day 1) was ~6450 ng·h/mL, the Cmax ([2]; po, 600 mg, oral 600 mg BID, Day 1, read-out: Mean Cmax) was ~2230 ng/mL and the half-life ([2]; po, 600 mg, oral 600 mg BID, Day 1, read-out: Mean t1/2 (converted)) was ~4.15 h. It also gave an AUC(0-t) ([2]; po, 600 mg, oral 600 mg BID, Day 10) of 7220 ng·h/mL, a Cmax ([2]; po, 600 mg, oral 600 mg BID, Day 10, read-out: Mean Cmax) of 1700 ng/mL and a half-life ([2]; po, 600 mg, oral 600 mg BID, Day 10, read-out: Mean t1/2 (converted)) of 4.66 h. The “Mean AUC0-12” value ([2]; oral 50 mg BID, Day 1) was 148 ng·h/mL, the “Mean AUC0-12” value ([2]; oral 50 mg BID, Day 10) was ~252 ng·h/mL and the “Mean AUC0-12” value ([2]; oral 150 mg BID, Day 1) was 809 ng·h/mL. For the same molecule, the “Mean AUC0-12” value ([2]; oral 150 mg BID, Day 10) was ~1170 ng·h/mL, the “Mean AUC0-12” value ([2]; oral 350 mg BID, Day 1) was 2950 ng·h/mL and the “Mean AUC0-12” value ([2]; oral 350 mg BID, Day 10) was ~4340 ng·h/mL. The “Mean AUC0-12” value ([2]; oral 600 mg BID, Day 1) was 6450 ng·h/mL, the “Mean AUC0-12” value ([2]; oral 600 mg BID, Day 10) was ~7220 ng·h/mL and the “tolerability as a systemic dose compared with ADX-102” value [3] was “generally better tolerated than ADX-102”. The “Influenza like illness, N subjects” value [4] was 0.
